In ChEMBL document CHEMBL4507276 (2021):

Assays:
[1] = target: T1, Muscarinic acetylcholine receptor M1 (Homo sapiens) (UniProt P11229); settings: Compound concentration 10.0 uM
T1 sequence (whole entry): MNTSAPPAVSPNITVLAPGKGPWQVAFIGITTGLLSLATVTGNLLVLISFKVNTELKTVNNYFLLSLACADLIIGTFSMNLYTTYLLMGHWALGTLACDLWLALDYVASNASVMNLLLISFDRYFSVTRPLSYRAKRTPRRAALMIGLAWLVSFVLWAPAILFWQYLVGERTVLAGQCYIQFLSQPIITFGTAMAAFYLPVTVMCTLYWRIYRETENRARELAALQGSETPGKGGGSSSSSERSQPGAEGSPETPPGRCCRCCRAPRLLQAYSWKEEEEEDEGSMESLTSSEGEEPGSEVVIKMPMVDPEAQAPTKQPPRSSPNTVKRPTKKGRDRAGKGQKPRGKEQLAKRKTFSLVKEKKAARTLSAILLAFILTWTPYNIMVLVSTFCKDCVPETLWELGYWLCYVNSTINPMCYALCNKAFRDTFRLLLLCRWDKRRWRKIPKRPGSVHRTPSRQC

[2] = target: Small conductance calcium-activated potassium channel protein 1 (Rattus norvegicus) (UniProt P70606); assay: K+/CA+/R Cerep selectivity data (BI); settings: Compound concentration 20.0 uM
[3] = system: Epidermal growth factor receptor (Homo sapiens), P00533 [UNDEFINED MUTATION]; assay: EGFRT790L858 Invitrogen selectivity data (BI); settings: Compound concentration 3.0 uM
[4] = target: Phosphatidylinositol 4-phosphate 3-kinase C2 domain-containing subunit beta (Homo sapiens) (UniProt O00750); assay: PIK3C2B Invitrogen selectivity data (BI); settings: Compound concentration 3.0 uM
[5] = target: Protein kinase C zeta type (Homo sapiens) (UniProt Q05513); assay: PRKCZ Invitrogen selectivity data (BI); settings: Compound concentration 3.0 uM
[6] = target: cGMP-inhibited 3',5'-cyclic phosphodiesterase 3B (Homo sapiens) (UniProt Q13370); assay: PDE3B Cerep selectivity data (BI); settings: Compound concentration 20.0 uM
[7] = target: Sodium-dependent serotonin transporter (Homo sapiens) (UniProt P31645); assay: 5HTTRANS/H Cerep selectivity data (BI); settings: Compound concentration 20.0 uM
[8] = target: Adenosine receptor A2b (Homo sapiens) (UniProt P29275); assay: A2B/H Cerep selectivity data (BI); settings: Compound concentration 20.0 uM
[9] = target: Receptor-type tyrosine-protein kinase FLT3 (Homo sapiens) (UniProt P36888); assay: FLT3 Invitrogen selectivity data (BI); settings: Compound concentration 3.0 uM
[10] = target: Tyrosine-protein kinase BTK (Homo sapiens) (UniProt Q06187); assay: BTK Invitrogen selectivity data (BI); settings: Compound concentration 3.0 uM
[11] = target: Catechol O-methyltransferase (Sus scrofa) (UniProt Q99028); assay: CATOMETHTRAN Cerep selectivity data (BI); settings: Compound concentration 20.0 uM
[12] = target: Vascular endothelial growth factor receptor 3 (Homo sapiens) (UniProt P35916); assay: FLT4 Invitrogen selectivity data (BI); settings: Compound concentration 3.0 uM
[13] = target: Platelet-derived growth factor receptor alpha (Homo sapiens) (UniProt P16234); assay: PDGFRA Invitrogen selectivity data (BI); settings: Compound concentration 3.0 uM
[14] = target: Alpha-1A adrenergic receptor (Rattus norvegicus) (UniProt P43140); assay: ALPHA1A/R Eurofins-Panlabs selectivity data (BI); settings: Compound concentration 10.0 uM
[15] = target: Tyrosine-protein kinase Lyn (Homo sapiens) (UniProt P07948); assay: LYNAKINASE(H) Cerep selectivity data (BI); settings: Compound concentration 20.0 uM
[16] = target: T2, Mitogen-activated protein kinase 12 (Homo sapiens) (UniProt P53778); assay: MAPK12 Invitrogen selectivity data (BI); settings: Compound concentration 3.0 uM
T2 sequence (whole entry): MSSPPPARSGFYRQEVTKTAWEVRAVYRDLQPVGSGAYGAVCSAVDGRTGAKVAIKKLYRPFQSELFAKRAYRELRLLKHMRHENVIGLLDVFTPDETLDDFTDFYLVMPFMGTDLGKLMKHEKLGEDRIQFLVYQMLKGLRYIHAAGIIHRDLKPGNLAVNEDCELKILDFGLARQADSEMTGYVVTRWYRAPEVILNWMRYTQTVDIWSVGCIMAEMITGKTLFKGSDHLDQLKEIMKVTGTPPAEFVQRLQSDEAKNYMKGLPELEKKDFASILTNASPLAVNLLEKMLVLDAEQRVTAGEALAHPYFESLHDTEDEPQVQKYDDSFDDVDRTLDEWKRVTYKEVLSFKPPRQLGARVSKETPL

[17] = target: T3, Alpha-2A adrenergic receptor (Homo sapiens) (UniProt P08913); assay: ALPHA2A/HU Cerep selectivity data (BI); settings: Compound concentration 20.0 uM
T3 sequence (whole entry): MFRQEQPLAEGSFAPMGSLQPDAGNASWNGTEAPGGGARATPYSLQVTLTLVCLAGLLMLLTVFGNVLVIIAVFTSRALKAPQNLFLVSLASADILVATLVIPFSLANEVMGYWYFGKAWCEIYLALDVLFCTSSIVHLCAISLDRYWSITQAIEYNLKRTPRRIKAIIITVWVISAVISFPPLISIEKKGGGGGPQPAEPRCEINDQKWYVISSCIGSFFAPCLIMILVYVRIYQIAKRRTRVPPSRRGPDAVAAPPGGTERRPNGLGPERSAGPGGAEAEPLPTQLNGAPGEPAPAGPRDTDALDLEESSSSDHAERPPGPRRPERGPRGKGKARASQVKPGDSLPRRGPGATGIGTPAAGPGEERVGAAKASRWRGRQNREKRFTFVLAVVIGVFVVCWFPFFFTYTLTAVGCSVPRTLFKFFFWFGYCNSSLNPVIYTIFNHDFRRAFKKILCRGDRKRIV

[18] = target: 5-hydroxytryptamine receptor 4 (Homo sapiens) (UniProt Q13639); assay: 5HT4EH_ANTAG Cerep selectivity data (BI); settings: filed as antagonist, Compound concentration 20.0 uM
[19] = target: T4, Alpha-1A adrenergic receptor (Homo sapiens) (UniProt P35348); assay: ALPHA1AH_ANTAG Cerep selectivity data (BI); settings: filed as antagonist, Compound concentration 20.0 uM
T4 sequence (whole entry): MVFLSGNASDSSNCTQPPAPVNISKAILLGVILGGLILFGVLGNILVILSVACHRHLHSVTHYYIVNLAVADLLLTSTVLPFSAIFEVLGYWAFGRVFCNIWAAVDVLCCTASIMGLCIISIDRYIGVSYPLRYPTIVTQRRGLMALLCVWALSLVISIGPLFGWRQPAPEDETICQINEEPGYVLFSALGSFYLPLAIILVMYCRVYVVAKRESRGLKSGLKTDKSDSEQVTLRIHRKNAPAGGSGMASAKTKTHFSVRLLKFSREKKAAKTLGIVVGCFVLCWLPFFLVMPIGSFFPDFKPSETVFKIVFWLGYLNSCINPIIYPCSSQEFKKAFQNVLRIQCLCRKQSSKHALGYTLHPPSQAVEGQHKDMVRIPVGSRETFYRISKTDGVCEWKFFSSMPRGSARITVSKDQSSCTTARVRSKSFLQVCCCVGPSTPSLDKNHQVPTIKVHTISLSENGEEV

Sodium-dependent serotonin transporter (Homo sapiens), sequence (P31645 whole entry, looked up): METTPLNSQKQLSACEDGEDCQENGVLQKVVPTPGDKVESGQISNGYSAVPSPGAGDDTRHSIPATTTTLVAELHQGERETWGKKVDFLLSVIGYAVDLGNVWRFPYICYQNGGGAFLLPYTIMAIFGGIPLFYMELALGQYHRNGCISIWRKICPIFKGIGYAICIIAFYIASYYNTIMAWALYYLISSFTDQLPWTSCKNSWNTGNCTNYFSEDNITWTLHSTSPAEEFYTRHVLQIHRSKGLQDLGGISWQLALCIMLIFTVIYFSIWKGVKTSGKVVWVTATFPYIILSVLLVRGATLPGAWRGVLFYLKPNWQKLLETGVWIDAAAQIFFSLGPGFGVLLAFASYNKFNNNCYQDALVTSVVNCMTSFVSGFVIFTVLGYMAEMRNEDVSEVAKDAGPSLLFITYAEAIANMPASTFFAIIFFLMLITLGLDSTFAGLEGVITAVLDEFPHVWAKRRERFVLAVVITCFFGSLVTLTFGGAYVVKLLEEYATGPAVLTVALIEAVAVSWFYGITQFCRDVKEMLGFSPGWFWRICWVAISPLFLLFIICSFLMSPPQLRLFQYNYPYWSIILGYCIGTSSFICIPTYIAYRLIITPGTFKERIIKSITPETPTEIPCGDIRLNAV
Protein kinase C zeta type (Homo sapiens), sequence (Q05513 whole entry): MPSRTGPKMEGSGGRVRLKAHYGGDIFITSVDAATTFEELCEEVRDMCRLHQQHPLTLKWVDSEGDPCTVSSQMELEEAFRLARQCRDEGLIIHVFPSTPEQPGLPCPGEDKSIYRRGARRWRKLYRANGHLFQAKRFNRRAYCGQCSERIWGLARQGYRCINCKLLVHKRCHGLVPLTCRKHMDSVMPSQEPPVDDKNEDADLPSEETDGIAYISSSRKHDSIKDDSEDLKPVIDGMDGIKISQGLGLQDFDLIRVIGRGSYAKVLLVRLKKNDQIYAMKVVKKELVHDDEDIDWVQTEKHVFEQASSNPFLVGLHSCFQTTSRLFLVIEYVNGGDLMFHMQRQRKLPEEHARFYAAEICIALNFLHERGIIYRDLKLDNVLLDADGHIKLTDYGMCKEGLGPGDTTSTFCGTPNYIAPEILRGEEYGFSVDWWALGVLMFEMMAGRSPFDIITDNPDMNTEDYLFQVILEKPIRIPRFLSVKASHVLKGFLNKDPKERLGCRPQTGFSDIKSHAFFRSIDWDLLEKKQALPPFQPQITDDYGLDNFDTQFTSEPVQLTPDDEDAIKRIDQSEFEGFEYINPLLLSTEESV
Catechol O-methyltransferase (Sus scrofa), sequence (Q99028 whole entry): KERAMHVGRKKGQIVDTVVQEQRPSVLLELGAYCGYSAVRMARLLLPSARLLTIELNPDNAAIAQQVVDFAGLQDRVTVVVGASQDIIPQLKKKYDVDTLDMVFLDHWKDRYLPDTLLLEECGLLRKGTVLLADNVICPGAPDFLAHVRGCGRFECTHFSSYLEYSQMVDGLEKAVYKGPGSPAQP
Tyrosine-protein kinase BTK (Homo sapiens), sequence (Q06187 whole entry): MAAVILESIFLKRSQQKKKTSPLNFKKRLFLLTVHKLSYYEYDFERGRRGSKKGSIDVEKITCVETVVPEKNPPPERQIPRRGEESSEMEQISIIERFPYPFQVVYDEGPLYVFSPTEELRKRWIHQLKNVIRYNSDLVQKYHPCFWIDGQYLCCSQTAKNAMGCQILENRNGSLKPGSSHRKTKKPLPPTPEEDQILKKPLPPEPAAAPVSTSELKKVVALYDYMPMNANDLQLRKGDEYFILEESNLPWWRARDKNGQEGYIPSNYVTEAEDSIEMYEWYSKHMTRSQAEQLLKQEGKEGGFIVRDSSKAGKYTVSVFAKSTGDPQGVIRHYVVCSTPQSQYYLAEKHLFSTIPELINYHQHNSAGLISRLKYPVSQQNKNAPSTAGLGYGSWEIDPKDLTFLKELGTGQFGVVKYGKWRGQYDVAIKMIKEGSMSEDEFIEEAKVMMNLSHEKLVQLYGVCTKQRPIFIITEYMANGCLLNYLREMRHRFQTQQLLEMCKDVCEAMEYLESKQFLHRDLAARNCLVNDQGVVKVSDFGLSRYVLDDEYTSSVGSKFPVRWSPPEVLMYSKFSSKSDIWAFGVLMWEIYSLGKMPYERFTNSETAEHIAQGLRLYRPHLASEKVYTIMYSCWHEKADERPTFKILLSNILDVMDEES
Small conductance calcium-activated potassium channel protein 1 (Rattus norvegicus), sequence (P70606 whole entry): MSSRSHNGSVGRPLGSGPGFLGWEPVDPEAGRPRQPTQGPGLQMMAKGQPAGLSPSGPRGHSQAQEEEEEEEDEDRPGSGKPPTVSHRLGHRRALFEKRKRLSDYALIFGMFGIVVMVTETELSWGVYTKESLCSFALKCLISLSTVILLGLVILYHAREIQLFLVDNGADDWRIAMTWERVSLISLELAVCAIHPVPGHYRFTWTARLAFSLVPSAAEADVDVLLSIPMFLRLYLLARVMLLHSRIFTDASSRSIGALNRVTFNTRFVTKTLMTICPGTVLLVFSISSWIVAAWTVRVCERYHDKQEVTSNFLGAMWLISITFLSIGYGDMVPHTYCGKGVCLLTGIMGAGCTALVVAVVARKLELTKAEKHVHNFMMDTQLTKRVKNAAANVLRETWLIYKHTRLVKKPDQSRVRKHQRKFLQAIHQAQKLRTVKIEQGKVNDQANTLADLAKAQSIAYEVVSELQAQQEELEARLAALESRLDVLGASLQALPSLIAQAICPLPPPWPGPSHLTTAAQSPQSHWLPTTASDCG
Platelet-derived growth factor receptor alpha (Homo sapiens), sequence (P16234 whole entry): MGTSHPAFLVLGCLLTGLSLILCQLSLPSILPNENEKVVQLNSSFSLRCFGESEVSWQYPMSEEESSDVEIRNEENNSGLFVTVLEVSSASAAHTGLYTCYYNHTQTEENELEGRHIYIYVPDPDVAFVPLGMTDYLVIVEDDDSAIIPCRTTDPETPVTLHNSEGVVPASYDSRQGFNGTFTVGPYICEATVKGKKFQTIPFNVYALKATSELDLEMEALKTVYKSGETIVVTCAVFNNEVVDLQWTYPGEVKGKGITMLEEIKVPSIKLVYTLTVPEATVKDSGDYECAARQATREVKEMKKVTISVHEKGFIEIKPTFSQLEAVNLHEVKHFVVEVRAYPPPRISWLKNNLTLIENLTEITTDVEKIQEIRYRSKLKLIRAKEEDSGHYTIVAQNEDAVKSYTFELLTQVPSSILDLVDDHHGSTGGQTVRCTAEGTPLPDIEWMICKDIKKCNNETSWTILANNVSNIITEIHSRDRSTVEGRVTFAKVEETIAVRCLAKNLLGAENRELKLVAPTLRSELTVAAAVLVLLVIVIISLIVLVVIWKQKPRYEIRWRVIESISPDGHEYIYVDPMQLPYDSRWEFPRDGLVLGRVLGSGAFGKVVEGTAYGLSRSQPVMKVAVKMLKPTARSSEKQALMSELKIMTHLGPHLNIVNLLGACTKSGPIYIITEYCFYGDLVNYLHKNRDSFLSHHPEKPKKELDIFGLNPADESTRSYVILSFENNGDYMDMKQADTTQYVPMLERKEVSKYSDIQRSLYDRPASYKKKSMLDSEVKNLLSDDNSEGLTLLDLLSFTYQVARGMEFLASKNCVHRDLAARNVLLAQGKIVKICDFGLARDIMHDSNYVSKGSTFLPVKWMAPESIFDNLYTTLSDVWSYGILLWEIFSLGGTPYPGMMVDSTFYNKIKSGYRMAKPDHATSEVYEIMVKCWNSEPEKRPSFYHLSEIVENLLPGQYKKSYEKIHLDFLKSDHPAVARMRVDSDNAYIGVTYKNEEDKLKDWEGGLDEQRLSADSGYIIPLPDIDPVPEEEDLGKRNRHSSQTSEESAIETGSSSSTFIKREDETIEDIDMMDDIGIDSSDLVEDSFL
Tyrosine-protein kinase Lyn (Homo sapiens), sequence (P07948 2-512 limits assumed): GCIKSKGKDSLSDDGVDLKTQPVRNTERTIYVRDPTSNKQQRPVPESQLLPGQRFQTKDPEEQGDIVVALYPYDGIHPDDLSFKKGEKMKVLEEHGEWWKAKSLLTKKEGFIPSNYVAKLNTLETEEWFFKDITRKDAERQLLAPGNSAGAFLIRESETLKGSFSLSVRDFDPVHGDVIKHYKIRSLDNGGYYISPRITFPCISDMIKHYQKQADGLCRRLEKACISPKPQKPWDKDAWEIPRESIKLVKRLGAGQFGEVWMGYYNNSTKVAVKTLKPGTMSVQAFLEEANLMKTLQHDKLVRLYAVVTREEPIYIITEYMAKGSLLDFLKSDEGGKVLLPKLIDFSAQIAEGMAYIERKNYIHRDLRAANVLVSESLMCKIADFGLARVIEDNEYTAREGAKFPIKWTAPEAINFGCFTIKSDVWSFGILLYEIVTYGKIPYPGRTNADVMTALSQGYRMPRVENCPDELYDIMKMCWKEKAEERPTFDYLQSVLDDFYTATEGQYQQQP
5-hydroxytryptamine receptor 4 (Homo sapiens), sequence (Q13639 whole entry): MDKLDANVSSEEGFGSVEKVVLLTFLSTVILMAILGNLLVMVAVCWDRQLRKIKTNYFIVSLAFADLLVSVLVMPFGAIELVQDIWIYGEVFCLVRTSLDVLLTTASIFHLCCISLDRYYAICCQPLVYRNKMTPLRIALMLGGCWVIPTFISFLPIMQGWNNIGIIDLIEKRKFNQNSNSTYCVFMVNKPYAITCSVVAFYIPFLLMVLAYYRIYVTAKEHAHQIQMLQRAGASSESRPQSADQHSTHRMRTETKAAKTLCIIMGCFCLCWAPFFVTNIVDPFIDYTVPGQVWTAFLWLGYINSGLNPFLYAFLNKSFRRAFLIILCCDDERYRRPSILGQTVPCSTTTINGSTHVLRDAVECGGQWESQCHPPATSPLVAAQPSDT
Adenosine receptor A2b (Homo sapiens), sequence (P29275 whole entry): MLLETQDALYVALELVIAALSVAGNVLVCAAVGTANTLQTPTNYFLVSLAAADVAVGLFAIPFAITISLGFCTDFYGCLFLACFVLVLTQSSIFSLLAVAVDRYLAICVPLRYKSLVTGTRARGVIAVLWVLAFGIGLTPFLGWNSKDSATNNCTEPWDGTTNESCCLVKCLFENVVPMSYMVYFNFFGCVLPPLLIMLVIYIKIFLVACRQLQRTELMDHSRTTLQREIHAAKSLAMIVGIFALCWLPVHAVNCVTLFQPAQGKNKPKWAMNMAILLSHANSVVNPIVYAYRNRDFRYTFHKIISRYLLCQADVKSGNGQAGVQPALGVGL

CN(C)C(=O)Cn1cc(-c2nc([C@@](C)(c3ccc(-c4cnc(N)nc4)cc3)C3CC3)no2)cn1 [BI 665915]
inactive: inhibition [1] -4.93% | residual activity [2] 88% | residual activity [3] 101% | residual activity [4] 108% | residual activity [5] 100% | residual activity [6] 95% | residual activity [7] 103% | residual activity [8] 83% | residual activity [9] 89% | residual activity [10] 89.5% | residual activity [11] 99% | residual activity [12] 69.5% | residual activity [13] 86% | residual activity [14] 100% | residual activity [15] 87% | residual activity [16] 91.5% | residual activity [17] 101% | residual activity [18] 111% | residual activity [19] 99%
